This note sets out measurements from ChEMBL document CHEMBL2401685 (Bioorg Med Chem Lett, 2013).

Data set [1] deals with T1, 11-beta-hydroxysteroid dehydrogenase 1 (Homo sapiens, UniProt P28845). Put plainly: Inhibition of human 11beta-HSD1 transfected in CHOP cells. In kind it is cell-based.
Target sequence in this assay (P28845 whole entry): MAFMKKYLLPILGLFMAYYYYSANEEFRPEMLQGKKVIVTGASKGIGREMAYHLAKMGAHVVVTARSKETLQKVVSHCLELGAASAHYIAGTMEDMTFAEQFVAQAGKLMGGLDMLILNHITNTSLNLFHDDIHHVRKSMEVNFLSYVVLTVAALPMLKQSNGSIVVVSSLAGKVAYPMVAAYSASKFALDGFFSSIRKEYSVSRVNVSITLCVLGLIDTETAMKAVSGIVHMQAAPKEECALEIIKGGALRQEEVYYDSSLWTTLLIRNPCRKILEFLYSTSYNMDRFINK
Data set [2] addresses T2, 11-beta-hydroxysteroid dehydrogenase type 2 (Rattus norvegicus) (UniProt P50233).
T2 sequence (whole entry): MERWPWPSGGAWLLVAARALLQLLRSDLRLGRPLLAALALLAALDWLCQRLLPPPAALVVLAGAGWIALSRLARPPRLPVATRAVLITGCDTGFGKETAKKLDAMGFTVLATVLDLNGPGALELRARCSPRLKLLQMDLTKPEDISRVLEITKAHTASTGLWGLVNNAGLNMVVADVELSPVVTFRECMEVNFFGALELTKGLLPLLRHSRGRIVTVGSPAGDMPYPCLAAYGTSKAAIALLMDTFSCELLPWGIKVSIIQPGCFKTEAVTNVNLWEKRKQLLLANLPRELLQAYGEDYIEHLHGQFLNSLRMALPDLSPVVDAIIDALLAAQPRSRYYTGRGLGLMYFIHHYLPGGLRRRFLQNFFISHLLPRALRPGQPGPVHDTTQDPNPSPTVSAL
Put plainly: Inhibition of 11beta-HSD2 in rat kidney microsomes using [3H]-CORT as substrate assessed as formation of 11-DHC at 100 uM after 30 mins by radiometric analysis relative to control. The following applies: Microsome.

The target of data set [3] is T3, 11-beta-hydroxysteroid dehydrogenase 1 (Rattus norvegicus, UniProt P16232). Put plainly: Inhibition of 11beta-HSD1 in Sprague-Dawley rat leydig cells […].
The target in data set [4] is T3, 11-beta-hydroxysteroid dehydrogenase 1. Put plainly: Inhibition of 11beta-HSD1 in rat testis microsomes using [3H]-11-DHC as substrate assessed as formation of CORT after 60 to 90 mins by radiometric analysis. On the set-up: species or system Microsome.
The target of data set [5] is T1, 11-beta-hydroxysteroid dehydrogenase 1. Put plainly: Inhibition of 11beta-HSD1 in human liver microsomes using [3H]-cortisone as substrate assessed as formation of cortisol after 60 to 90 mins by radiometric analysis. On the set-up: species or system Microsome. On the technique in general: Liver microsomes are vesicles of endoplasmic reticulum, rich in cytochrome P450 enzymes.
Target sequence in this assay (P28845 whole entry): as the sequence (P28845 whole entry) above

For data set [6] the target is unchanged. Put plainly: Ratio of curcumin IC50 to compound IC50 for human 11beta-HSD1 transfected in CHOP cells. In kind it is cell-based.
Target sequence in this assay (P28845 whole entry, looked up): as the sequence (P28845 whole entry) above
Data set [7] has as its target T4, 11-beta-hydroxysteroid dehydrogenase type 2 (Homo sapiens) (UniProt P80365).
T4 sequence (whole entry): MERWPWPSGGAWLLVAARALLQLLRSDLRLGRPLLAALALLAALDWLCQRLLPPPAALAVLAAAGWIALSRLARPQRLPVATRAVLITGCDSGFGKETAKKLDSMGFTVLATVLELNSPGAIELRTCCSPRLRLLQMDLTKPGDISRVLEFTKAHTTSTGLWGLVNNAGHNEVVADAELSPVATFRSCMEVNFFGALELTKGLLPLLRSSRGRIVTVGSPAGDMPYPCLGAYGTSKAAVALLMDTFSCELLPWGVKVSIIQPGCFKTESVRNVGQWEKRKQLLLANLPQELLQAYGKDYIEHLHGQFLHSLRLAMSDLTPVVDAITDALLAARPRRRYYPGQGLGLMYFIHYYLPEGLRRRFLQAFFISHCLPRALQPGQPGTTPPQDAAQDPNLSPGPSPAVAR
Put plainly: (§1) Inhibition of 11beta-HSD2 in human kidney microsomes using [3H]-cortisol as substrate assessed as formation of cortisone at 100 uM after 30 mins by radiometric analysis relative to control. The note with it: Microsome.

In data set [8] the target is 11-beta-hydroxysteroid dehydrogenase 1 (Rattus norvegicus) (UniProt P16232). Put plainly: Inhibition of 11beta-HSD1 in rat testis microsomes using [3H]-11-DHC as substrate assessed as formation of CORT at 100 uM after 60 to 90 mins by radiometric analysis relative to control. The following applies: Microsome.
In a further data set the test system is J774.A1. Put plainly: (§2) Antiinflammatory activity in mouse J774A1 cells assessed as LPS-induced TNFalpha production at 10 uM incubated 2 hrs prior to LPS challenge measured after 24 hrs by ELISA relative to vehicle-treated control. In kind it is functional. (ELISA stands for enzyme-linked immunosorbent assay.)
The nature of data set [9]: as §2. The class given is functional. The note with it: J774.A1.
Data set [10] is described as follows: Cytotoxicity against rat leydig cells. In kind it is cell-based.
A short description of data set [11]: Cytotoxicity against CHOp cells. In kind it is cell-based, Cricetulus griseus. The note with it: chinese hamster.
Data set [12] has as its target T1, 11-beta-hydroxysteroid dehydrogenase 1. Put plainly: Competitive inhibition of 11beta-HSD1 in human liver microsomes at 1 to 10 uM by Lineweaver-burk plot analysis in presence of cortisone. The following applies: Microsome.
Target sequence in this assay (P28845 whole entry, looked up): as the sequence (P28845 whole entry) above
For data set [13], the target named is T5, 11-beta-hydroxysteroid dehydrogenase type 2 (Homo sapiens, UniProt P80365).
T5 sequence (P80365 whole entry): T4 sequence (whole entry)
The data set is described as §1. Also noted: species or system Microsome.

Data set [14] deals with T1, 11-beta-hydroxysteroid dehydrogenase 1. Put plainly: Inhibition of 11beta-HSD1 in human liver microsomes using [3H]-cortisone as substrate assessed as formation of cortisol at 100 uM after 60 to 90 mins by radiometric analysis relative to control. The note with it: Microsome.
Target sequence in this assay (P28845 whole entry, looked up): as the sequence (P28845 whole entry) above
Data set [15] shares this target. Put plainly: Inhibition of human 11beta-HSD1 transfected in CHOP cells at 100 uM relative to control. In kind it is cell-based.
Target sequence in this assay (P28845 whole entry, looked up): as the sequence (P28845 whole entry) above
In data set [16] the target is 11-beta-hydroxysteroid dehydrogenase 1 (Rattus norvegicus) (UniProt P16232). Put plainly: Inhibition of 11beta-HSD1 in Sprague-Dawley rat leydig cells […] relative to control. The note with it: 100 uM.

Calls of active or inactive are those of the source. The calls are words filed in the database; no cut-off is given here.

Sequence of 11-beta-hydroxysteroid dehydrogenase 1 (Rattus norvegicus) (P16232 whole entry, looked up): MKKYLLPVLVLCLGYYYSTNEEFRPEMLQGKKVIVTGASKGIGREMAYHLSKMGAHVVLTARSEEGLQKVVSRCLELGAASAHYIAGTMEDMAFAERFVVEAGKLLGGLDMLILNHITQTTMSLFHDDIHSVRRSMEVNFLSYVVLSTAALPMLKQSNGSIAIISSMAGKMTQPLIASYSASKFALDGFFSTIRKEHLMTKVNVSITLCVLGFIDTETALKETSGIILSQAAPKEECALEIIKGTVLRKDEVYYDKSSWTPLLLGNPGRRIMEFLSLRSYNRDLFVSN
T3 sequence (P16232 whole entry): as the sequence (P16232 whole entry, looked up) above

Usually IC50 stands for the concentration that gives 50% inhibition. Usually inhibition stands for the percentage by which the read-out fell short of the control. With `O=C1/C(=C/c2cccc(Br)c2)CC/C1=C\c1cccc(Br)c1`, the concentration for half-maximal inhibition (IC50) is 97 nM in [1], 1150 nM in data set [3], 599 nM in data set [4] and 3510 nM in data set [5]. In addition, the inhibition in data set [2] came to 3%; in [7], 23%. In addition, the Ratio IC50 in data set [6] was determined as 9.
As for `O=C1/C(=C/c2ccc(O)cc2)CCC/C1=C\c1ccc(O)cc1`, the figures for the IC50 in [1], in data set [3] and in data set [5] were 195 nM, 633 nM and 1940 nM, respectively. For the same compound, the inhibition in data set [2] amounted to 24%; in data set [8], 63%; in data set [7], 0%. In addition, the Ratio IC50 in data set [6] was determined as 5.
Turning to `O=C1/C(=C/c2ccc(F)cc2)CCC/C1=C\c1ccc(F)cc1`, the IC50 amounted to 263 nM in [1], 1110 nM in [3], 13500 nM in data set [4] and 2970 nM in data set [5]. The inhibition in [2] was found to be 16%; in data set [7], 24%. For the same compound, in the data set with J774.A1, the inhibition result was “inactive”. Further, the Ratio IC50 in data set [6] came out at 9.
For `O=C1/C(=C/c2ccccc2Br)CC/C1=C\c1ccccc1Br`, the half-maximal inhibitory concentration (IC50) turned out to be 144 nM in data set [1], 1450 nM in data set [3], 2880 nM in data set [4] and 6110 nM in [5]. Besides, the inhibition in data set [2] is 22%; in [7] it was 36%. Further, the Ratio IC50 in [6] is 9.
Consider `O=C1/C(=C/c2ccccc2Br)CCC/C1=C\c1ccccc1Br`, for which the IC50 was 346 nM in data set [1], 148 nM in data set [3], 218 nM in data set [4] and 1110 nM in data set [5]. Also, the results for the inhibition in data set [2] and in data set [7] were 39% and 33%, respectively. In addition, the inhibition at 10 µM in [9] was greater than 50%. Besides, the Activity entry in data set [10] and in [11] was “Non-toxic” throughout. In data set [6], the Ratio IC50 was 9.
`O=C(/C=C/c1ccccc1Br)/C=C/c1ccccc1Br`: the IC50 in [1] was 115 nM; in data set [3] it was 129 nM; in data set [4], 288 nM; in data set [5], 529 nM. For the same compound, the results for the inhibition in [2] and in data set [7] were 39% and 53%, respectively. Also, the inhibition result in data set [12] was “Active”. In addition, the inhibition at 10 µM in data set [9] was greater than 50%. In addition, the Activity result in [10] and in data set [11] was “Non-toxic” each time. In data set [6], the Ratio IC50 worked out at 9.
For the compound `O=C(/C=C/c1ccc(O)cc1)/C=C/c1ccc(O)cc1`, the figures for the IC50 in data set [1], in data set [3] and in data set [5] were 832 nM, 986 nM and 4420 nM, respectively. Also, the figures for the inhibition in data set [2], in data set [8] and in [7] were 7%, 41% and 44%, respectively. Also, in [6], the Ratio IC50 stood at 5.
For the compound `COc1cc(/C=C/C(=O)CC(=O)/C=C/c2ccc(O)c(OC)c2)ccc1O` [CURCUMIN], the IC50 in data set [1] stood at 4500 nM; in data set [3], 3920 nM; in data set [4], 4120 nM; in data set [5], 16000 nM; in data set [13], 15700 nM. Moreover, the inhibition result in the data set with J774.A1 is “inactive”.
For the compound `CCOc1ccc(/C=C2\CC/C(=C\c3ccc(OCC)cc3)C2=O)cc1`, the inhibition in data set [14] was 14%; in [15], 14%; in [2] it was 10%; in data set [16] it was 27%; in data set [8], 0%; in data set [7], 6%. In addition, in data set [9], the inhibition at 10 µM is less than 50%.
As to `COc1cc(/C=C2\CCC/C(=C\c3ccc(OC4CCCCO4)c(OC)c3)C2=O)ccc1OC1CCCCO1` (centres undefined), the inhibition in [14] was found to be 37%; in data set [15], 40%; in data set [2] it was 14%; in [16], 8%; in [7], 6%. The IC50 in [4] was determined as 65400 nM.
Turning to `COc1cc(/C=C/C(=O)/C=C/c2ccc(O)c(OC)c2)ccc1O`, the IC50 in data set [1] was determined as 257 nM; in data set [3] it was 292 nM; in data set [4], 16100 nM; in [5] it was 70900 nM. The figures for the inhibition in [2] and in [7] were 35% and 39%, respectively. The Ratio IC50 in data set [6] amounted to 5.
On to `O=C(/C=C/c1ccc(F)cc1)/C=C/c1ccc(F)cc1`, for which the inhibition in data set [14] came to 37%; in [2] it was 22%; in data set [8], 2%; in [7], 26%. The IC50 in data set [1] was found to be 507 nM; in data set [3] it was 229 nM. For the same compound, in the data set on J774.A1, the inhibition entry was “inactive”. In addition, the Ratio IC50 in data set [6] amounted to 9.
Take `O=C1/C(=C/c2ccc(F)cc2)CC/C1=C\c1ccc(F)cc1`: the IC50 in data set [1] was determined as 310 nM; in data set [3] it was 3470 nM; in data set [4] it was 22000 nM; in data set [5] it was 17400 nM. Besides, the inhibition in [2] came out at 9%; in data set [7], 26%. The inhibition entry with J774.A1 was “inactive”. For the same compound, the Ratio IC50 in data set [6] stood at 9.
